Where “and” joins values, the source holds several entries; their conditions need not be identical. Equal entries are not always repeated. Inconclusive results and toxic doses are left out. Cut-off read from the data, not from the text of the source: active = T/C of 150% or more; inactive = T/C below 125%.
System: L1210 leukemia ip in BDF1 mice, survival T/C
Assay: NCI In Vivo Anticancer Drug Screen. Data for tumor model L1210 Leukemia (intraperitoneal) in B6D2F1 (BDF1) mice
Settings: higher = longer survival
Method in brief: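 Mice bearing the transplanted tumor received compound or vehicle. Survival of the treated group was divided by that of the vehicle-treated control group to give the ratio.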

[1] = endpoint: mean survival time, dose: 100.0 mg/kg/injection, schedule: Q01DX001 (ip), vehicle: carboxymethylcellulose (CMC)
[2] = endpoint: mean survival time, dose: 200.0 mg/kg/injection, schedule: Q01DX001 (ip), vehicle: carboxymethylcellulose (CMC)
[3] = endpoint: mean survival time, dose: 400.0 mg/kg/injection, schedule: Q01DX001 (ip), vehicle: carboxymethylcellulose (CMC)
[4] = endpoint: mean survival time, dose: 100.0 mg/kg/injection, schedule: Q04DX003 (ip), vehicle: saline with Tween-80
[5] = endpoint: mean survival time, dose: 200.0 mg/kg/injection, schedule: Q04DX003 (ip), vehicle: saline with Tween-80
[6] = endpoint: mean survival time, dose: 400.0 mg/kg/injection, schedule: Q04DX003 (ip), vehicle: saline with Tween-80
[7] = endpoint: mean survival time, dose: 100.0 mg/kg/injection, schedule: Q01DX001 (ip), vehicle: saline
[8] = endpoint: mean survival time, dose: 200.0 mg/kg/injection, schedule: Q01DX001 (ip), vehicle: saline
[9] = endpoint: mean survival time, dose: 400.0 mg/kg/injection, schedule: Q01DX001 (ip), vehicle: saline
[10] = endpoint: mean survival time, dose: 100.0 mg/kg/injection, schedule: Q04DX003 (ip), vehicle: saline
[11] = endpoint: mean survival time, dose: 200.0 mg/kg/injection, schedule: Q04DX003 (ip), vehicle: saline
[12] = endpoint: mean survival time, dose: 400.0 mg/kg/injection, schedule: Q04DX003 (ip), vehicle: saline
[13] = endpoint: mean survival time, dose: 100.0 mg/kg/injection, schedule: Q01DX009 (ip), vehicle: Klucel (hydroxypropylcellulose) (HPC)
[14] = endpoint: mean survival time, dose: 100.0 mg/kg/injection, schedule: Q04DX003 (ip), vehicle: Klucel (hydroxypropylcellulose) (HPC)
[15] = endpoint: mean survival time, dose: 200.0 mg/kg/injection, schedule: Q04DX003 (ip), vehicle: Klucel (hydroxypropylcellulose) (HPC)
[16] = endpoint: mean survival time, dose: 400.0 mg/kg/injection, schedule: Q04DX003 (ip), vehicle: Klucel (hydroxypropylcellulose) (HPC)

Measured: T/C

CCCOC(C)CC(c1ccccc1)(c1ccccc1)c1ccccc1 (centres undefined)
inactive: endpoint: mean survival time, dose: 12.5 mg/kg/injection, schedule: Q01DX009 (ip), vehicle: saline with Tween-80 98 % of control | endpoint: mean survival time, dose: 25.0 mg/kg/injection, schedule: Q01DX009 (ip), vehicle: saline with Tween-80 95 % of control | endpoint: mean survival time, dose: 50.0 mg/kg/injection, schedule: Q01DX009 (ip), vehicle: saline with Tween-80 91 % of control | endpoint: mean survival time, dose: 200.0 mg/kg/injection, schedule: Q01DX009 (ip), vehicle: saline with Tween-80 90 % of control

C=CCNC(=S)Nc1ccccc1C=O
inactive: endpoint: mean survival time, dose: 25.0 mg/kg/injection, schedule: Q04DX002 (ip), vehicle: Klucel (hydroxypropylcellulose) (HPC) 100 % of control | endpoint: mean survival time, dose: 50.0 mg/kg/injection, schedule: Q04DX002 (ip), vehicle: Klucel (hydroxypropylcellulose) (HPC) 106 % of control | endpoint: mean survival time, dose: 100.0 mg/kg/injection, schedule: Q04DX002 (ip), vehicle: Klucel (hydroxypropylcellulose) (HPC) 110 % of control and 90 % of control

C[N+]1=C(/C=C\c2ccc3cccnc3c2O)C(C)(C)c2cc(F)ccc21
inactive: [1] 93 % of control | [2] 95 % of control | [3] 88 % of control

C/C=C/CCC(C)=O
inactive: [4] 99 % of control | [5] 100 % of control | [6] 108 % of control

O=C(N/N=C/c1ccccc1)C(Oc1ccccc1)c1ccccc1 (centres undefined)
inactive: [1] 94 % of control | [2] 94 % of control | [3] 100 % of control

O=C1NC(c2ccccc2)(c2ccccc2)CN1CCO
inactive: endpoint: mean survival time, dose: 100.0 mg/kg/injection, schedule: Q01DX001 (ip), vehicle: saline with Tween-80 95 % of control | endpoint: mean survival time, dose: 200.0 mg/kg/injection, schedule: Q01DX001 (ip), vehicle: saline with Tween-80 95 % of control | endpoint: mean survival time, dose: 400.0 mg/kg/injection, schedule: Q01DX001 (ip), vehicle: saline with Tween-80 93 % of control

CCCCCCCNC1=C(c2ccccc2)C(=O)C(NCCCCCCC)=C(c2ccccc2)C1=O
inactive: [1] 94 % of control | [2] 96 % of control | [3] 91 % of control

O=C(Cl)c1cc2ccccc2o1
inactive: [4] 89 % of control | [5] 92 % of control | [6] 95 % of control

Cc1ccc(S(=O)(=O)Nc2cc(Cl)c(I)cc2Cl)cc1
inactive: [5] 90 % of control | [6] 101 % of control

CC(=O)NC1CCC(NC(C)=O)CC1 (centres undefined)
inactive: [7] 104 % of control | [8] 97 % of control | [9] 104 % of control

O=C1NC2(CCCCC2)C(=O)N1CCCl
inactive: endpoint: mean survival time, dose: 50.0 mg/kg/injection, schedule: Q04DX003 (ip), vehicle: saline 101 % of control | [10] 109 % of control | [11] 106 % of control | [12] 101 % of control

O=C1CC=C2C3CC4N(CCC45c4ccccc4N1C25)C/C3=C\CBr (centres undefined)
inactive: endpoint: mean survival time, dose: 9.38 mg/kg/injection, schedule: Q01DX001 (ip), vehicle: other 100 % of control

Cc1cccc(C)c1C1CC1S(=O)(=O)c1ccccc1 (centres undefined)
inactive: [7] 101 % of control | [10] 100 % of control | [8] 98 % of control | [11] 94 % of control | [9] 111 % of control | [12] 104 % of control

COc1ccc(NC(=O)N(c2ccccc2)C(C)C)c(OC)c1
inactive: [13] 97 % of control | endpoint: mean survival time, dose: 200.0 mg/kg/injection, schedule: Q01DX009 (ip), vehicle: Klucel (hydroxypropylcellulose) (HPC) 94 % of control | endpoint: mean survival time, dose: 400.0 mg/kg/injection, schedule: Q01DX009 (ip), vehicle: Klucel (hydroxypropylcellulose) (HPC) 102 % of control

CCCCN(CCCC)CC(O)c1cc2ccc(Cl)cc2nc1-c1ccc(Cl)cc1 (centres undefined)
inactive: [14] 100 % of control | [15] 96 % of control | [16] 102 % of control

CCOC(=O)c1ccc(N(CC(S)CNc2cc(C)nc(N)n2)S(=O)(=O)c2ccc(C)cc2)cc1 (centres undefined)
inactive: endpoint: mean survival time, dose: 25.0 mg/kg/injection, schedule: Q01DX001 (ip), vehicle: saline 95 % of control | endpoint: mean survival time, dose: 50.0 mg/kg/injection, schedule: Q01DX001 (ip), vehicle: saline 90 % of control

O=C1NCC(Nc2ccc(Br)cc2)C(=O)N1 (centres undefined)
inactive: endpoint: mean survival time, dose: 100.0 mg/kg/injection, schedule: Q01DX Z (ip), vehicle: methylcellulose (MC) 96 % of control | endpoint: mean survival time, dose: 200.0 mg/kg/injection, schedule: Q01DX Z (ip), vehicle: methylcellulose (MC) 94 % of control

Cn1ccc2cc(Br)ccc21
inactive: [4] 102 % of control | [5] 101 % of control | [6] 101 % of control

C1=NN=C2C=C3CCc4ccccc4C3CC12 (centres undefined)
inactive: endpoint: mean survival time, dose: 100.0 mg/kg/injection, schedule: Q01DX001 (ip), vehicle: acetone 93 % of control | endpoint: mean survival time, dose: 200.0 mg/kg/injection, schedule: Q01DX001 (ip), vehicle: acetone 96 % of control

CC(=O)S[C@@H]1CC2=CC(=O)CC[C@]2(C)[C@H]2CC[C@@]3(C)[C@@H](CC[C@@]34CCC(=O)O4)[C@H]12
inactive: endpoint: mean survival time, dose: 45.0 mg/kg/injection, schedule: Q01DX009 (sc), vehicle: steriod suspending solution 107 % of control | endpoint: mean survival time, dose: 90.0 mg/kg/injection, schedule: Q01DX009 (sc), vehicle: steriod suspending solution 102 % of control | [14] 90 % of control | endpoint: mean survival time, dose: 180.0 mg/kg/injection, schedule: Q01DX009 (sc), vehicle: steriod suspending solution 100 % of control | endpoint: median survival time, dose: 100.0 mg/kg/injection, schedule: Q01DX001 (ip), vehicle: water 97 % of control | endpoint: median survival time, dose: 100.0 mg/kg/injection, schedule: Q01DX009 (sc), vehicle: steriod suspending solution 101 % of control | endpoint: median survival time, dose: 200.0 mg/kg/injection, schedule: Q01DX001 (ip), vehicle: water 91 % of control | endpoint: median survival time, dose: 200.0 mg/kg/injection, schedule: Q01DX009 (sc), vehicle: steriod suspending solution 95 % of control | endpoint: median survival time, dose: 400.0 mg/kg/injection, schedule: Q01DX001 (ip), vehicle: water 97 % of control | endpoint: median survival time, dose: 400.0 mg/kg/injection, schedule: Q01DX009 (sc), vehicle: steriod suspending solution 96 % of control

CC(C)N1C(=O)N(C(C)C)C2(CCN(CC3COc4ccccc4O3)CC2)C1=O (centres undefined)
inactive: endpoint: mean survival time, dose: 100.0 mg/kg/injection, schedule: Q01DX001 (ip), vehicle: Klucel (hydroxypropylcellulose) (HPC) 100 % of control | endpoint: mean survival time, dose: 200.0 mg/kg/injection, schedule: Q01DX001 (ip), vehicle: Klucel (hydroxypropylcellulose) (HPC) 88 % of control | endpoint: mean survival time, dose: 400.0 mg/kg/injection, schedule: Q01DX001 (ip), vehicle: Klucel (hydroxypropylcellulose) (HPC) 94 % of control

O=C(CCl)Nc1ccc2c(c1)-n1cccc1C2=O
inactive: endpoint: mean survival time, dose: 25.0 mg/kg/injection, schedule: Q01DX009 (ip), vehicle: Klucel (hydroxypropylcellulose) (HPC) 89 % of control | endpoint: mean survival time, dose: 50.0 mg/kg/injection, schedule: Q01DX009 (ip), vehicle: Klucel (hydroxypropylcellulose) (HPC) 91 % of control | [13] 86 % of control | [14] 93 % of control | [15] 96 % of control | [16] 100 % of control

C=CCC#N
inactive: endpoint: mean survival time, dose: 25.0 mg/kg/injection, schedule: Q01DX009 (ip), vehicle: saline 95 % of control | endpoint: mean survival time, dose: 50.0 mg/kg/injection, schedule: Q01DX009 (ip), vehicle: saline 101 % of control | endpoint: mean survival time, dose: 100.0 mg/kg/injection, schedule: Q01DX009 (ip), vehicle: saline 97 % of control

CCOC(=O)/C=C/c1c(C)[nH]c(=O)[nH]c1=O
inactive: [7] 94 % of control | endpoint: mean survival time, dose: 150.0 mg/kg/injection, schedule: Q04DX003 (ip), vehicle: saline 102 % of control | [8] 93 % of control | endpoint: mean survival time, dose: 300.0 mg/kg/injection, schedule: Q04DX003 (ip), vehicle: saline 96 % of control | [9] 93 % of control | endpoint: mean survival time, dose: 600.0 mg/kg/injection, schedule: Q04DX003 (ip), vehicle: saline 103 % of control
